Data: US10076519B2 (CYTOKINETICS, INC., priority 2010, dated 2018)

System: rabbit skeletal myofibrils (fast skeletal myofibrils)
Experiment: Activation of fast skeletal myofibrils (PUMA assay, PK/LDH-coupled ATPase at pCa25)
Assay type: biochemical
Summary of the method: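 ATPase activity of Triton-washed rabbit skeletal myofibrils, roughly 90% fast fibres, tracked by NADH loss at 340 nm through a PK/LDH-coupled ADP-regenerating system. Calcium set to 25% of maximal activity (pCa25), in PIPES 12 mM pH 6.8 with 2 mM MgCl2 and 1 mM DTT; AC1.4 reported.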

[1] = median AC1.4 reported as class, procedure of Example 39
[2] = median AC1.4 class, procedure of Example 39
[3] = AC1.4 determined according to the procedure of Example 39, reported as class symbols

Mean AC1.4 [1] | Mean AC1.4 [2] | Compound | other results
D (D=>20 uM) | – | CCOC(=O)Cc1nnc(NC(=O)c2ccc(NCC3(c4ncccc4F)CCC3)nn2)s1 [ethyl 2-(5-{[6-({[(3-fluoro-2-pyridyl)cyclobutyl]methyl}ami-no)pyridazin-3-yl]carbonylamino}-1,3,4-thiadiazol-2-yl)acetate] | –
– | D (D=>20 uM) | CCOC(=O)c1sc(-c2ccc(NCC3(c4ncccc4F)CCC3)nn2)nc1O [ethyl 2-[6-({[(3-fluoro(2-pyridyl))cyclobutyl]methyl}ami-no)pyridazin-3-yl]-4-hydroxy-1,3-thiazole-5-carboxylate] | –
– | – | CCOC(=O)c1cc(-c2ccc(NCC(C)(C)c3ccc(F)cc3)nn2)ccc1F [ethyl 2-fluoro-5-(6-{[2-(4-fluorophenyl)-2-methylpropyl]amino}pyridazin-3-yl)benzoate] | Mean AC1.4 [3]: B (B=1-10 uM)
– | C (C=10-20 uM) | CCOC(=O)c1cc(-c2ccc(NC[C@]3(c4ncccc4F)C[C@H](F)C3)nn2)ccc1F [ethyl 2-fluoro-5-[6-({[3-fluoro-1-(3-fluoro(2-pyridyl))cyclobutyl]methyl}ami-no)pyridazin-3-yl]benzoate] | –
C (C=10-20 uM) | – | CCOC(=O)Cc1csc(-c2ccc(NCC3(c4ncccc4F)CCC3)nn2)n1 [ethyl 2-{2-[6-({[(3-fluoro-2-pyridyl)cyclobutyl]methyl}ami-no)pyridazin-3-yl]-1,3-thiazol-4-yl}acetate] | –
D (D=>20 uM) | – | CCOC(=O)c1coc(NC(=O)c2ccc(NCC3(c4ncccc4F)CCC3)nn2)n1 [ethyl 2-{[6-({[(3-fluoro-2-pyridyl)cyclobutyl]methyl}ami-no)pyridazin-3-yl]carbonylamino}-1,3-oxazole-4-carboxylate] | –
D (D=>20 uM) | – | CCOC(=O)c1cnc(NC(=O)c2ccc(NCC3(c4ncccc4F)CCC3)nn2)s1 [ethyl 2-{[6-({[(3-fluoro-2-pyridyl)cyclobutyl]methyl}ami-no)pyridazin-3-yl]carbonylamino}-1,3-thiazole-5-carboxylate] | –
– | – | CCOC(=O)CCc1ccc(NCC(C)(C)c2ccc(F)cc2)nn1 [ethyl 3-(6-{[2-(4-fluorophenyl)-2-methylpropyl]amino}pyridazin-3-yl)propanoate] | Mean AC1.4 [3]: D (D=>20 uM)
– | D (D=>20 uM) | CCOC(=O)c1c(-c2ccc(NCC3(c4ncccc4F)CCC3)nn2)n[nH]c1O [ethyl 3-[6-({[(3-fluoro(2-pyridyl))cyclobutyl]methyl}ami-no)pyridazin-3-yl]-5-hydroxypyrazole-4-carboxylate] | –
D (D=>20 uM) | – | CCOC(=O)c1nc(NC(=O)c2ccc(NCC3(c4ncccc4F)CCC3)nn2)cn1C [ethyl 4-{[6-({[(3-fluoro(2-pyridyl))cyclobutyl]methyl}ami-no)pyridazin-3-yl]carbonylamino}-1-methylimidazole-2-carboxylate] | –
A (A=<1 uM) | – | CCOC(=O)c1cc(-c2ccc(NC[C@]3(c4ncccc4F)C[C@H](F)C3)nn2)ccc1NC [ethyl 5-[6-({[3-fluoro-1-(3-fluoro(2-pyridyl))cyclobutyl]methyl}ami-no)pyridazin-3-yl]-2-(methylamino)benzoate] | –
– | D (D=>20 uM) | CCOC(=O)c1nc(-c2cc(Cl)c(NCC3(c4ncccc4F)CCC3)nn2)sc1Cl [ethyl 5-chloro-2-[5-chloro-6-({[(3-fluoro(2-pyridyl))cyclobutyl]methyl}ami-no)pyridazin-3-yl]-1,3-thiazole-4-carboxylate] | –
– | D (D=>20 uM) | COC(=O)c1cn(C)c(-c2ccc(NCC3(c4ncccc4F)CCC3)nn2)n1 [methyl 2-[6-({[(3-fluoro(2-pyridyl))cyclobutyl]methyl}ami-no)pyridazin-3-yl]-1-methylimidazole-4-carboxylate] | –
– | D (D=>20 uM) | COC(=O)c1cnc(-c2ccc(NCC3(c4ncccc4F)CCC3)nn2)o1 [methyl 2-[6-({[(3-fluoro-2-pyridyl)cyclobutyl]methyl}ami-no)pyridazin-3-yl]-1,3-oxazole-5-carboxylate] | –
– | D (D=>20 uM) | COC(=O)c1csc(-c2ccc(NCC3(c4ncccc4F)CCC3)nn2)n1 [methyl 2-[6-({[(3-fluoro-2-pyridyl)cyclobutyl]methyl}ami-no)pyridazin-3-yl]-1,3-thiazole-4-carboxylate] | –
– | D (D=>20 uM) | COC(=O)c1c[nH]c(-c2ccc(NCC3(c4ncccc4F)CCC3)nn2)n1 [methyl 2-[6-({[(3-fluoro-2-pyridyl)cyclobutyl]methyl}ami-no)pyridazin-3-yl]imidazole-4-carboxylate] | –
B (B=1-10 uM) | – | COC(=O)Cc1ccc(F)c(-c2ccc(NCC3(c4ncccc4F)CCC3)nn2)c1 [methyl 2-{4-fluoro-3-[6-({[(3-fluoro(2-pyridyl))cyclobutyl]methyl}ami-no)pyridazin-3-yl]phenyl}acetate] | –

Mean AC1.4 [1] | Mean AC1.4 [2] | Compound | other results
B (B=1-10 uM) | – | COC(=O)c1csc(NC(=O)c2ccc(NCC3(c4ncccc4F)CCC3)nn2)n1 [methyl 2-{[6-({[(3-fluoro-2-pyridyl)cyclobutyl]methyl}ami-no)pyridazin-3-yl]carbonylamino}-1,3-thiazole-4-carboxylate] | –
– | – | COC(=O)N1CC(CNc2ccc(-c3ccc4[nH]ncc4c3)nn2)(c2ncccc2F)C1 [methyl 3-(3-fluoro(2-pyridyl))-3-{[(6-(1H-indazol-5-yl)pyridazin-3-yl)amino]methyl}azetidine-carboxylate] | Mean AC1.4 [3]: D (D=>20 uM)
– | – | COC(=O)N1CC(CNc2ccc(-c3cccc(C(N)=O)c3)nn2)(c2ncccc2F)C1 [methyl 3-({[6-(3-carbamoylphenyl)pyridazin-3-yl]amino}methyl)-3-(3-fluoro(2-pyridyl))azetidinecarboxylate] | Mean AC1.4 [3]: D (D=>20 uM)
– | B (B=1-10 uM) | COC(=O)c1cccc(-c2ccc(NC[C@]3(c4ncccc4F)C[C@H](F)C3)nn2)c1 [methyl 3-[6-({[3-fluoro-1-(3-fluoro(2-pyridyl))cyclobutyl]methyl}ami-no)pyridazin-3-yl]benzoate] | –
B (B=1-10 uM) | – | COC(=O)CCc1cnc(-c2ccc(NCC3(c4ncccc4F)CCC3)nn2)s1 [methyl 3-{2-[6-({[(3-fluoro-2-pyridyl)cyclobutyl]methyl}ami-no)pyridazin-3-yl]-1,3-thiazol-5-yl}propanoate] | –
– | B (B=1-10 uM) | COC(=O)c1ccc(F)c(-c2ccc(NC[C@]3(c4ncccc4F)C[C@H](F)C3)nn2)c1 [methyl 4-fluoro-3-[6-({[3-fluoro-1-(3-fluoro(2-pyridyl))cyclobutyl]methyl}ami-no)pyridazin-3-yl]benzoate] | –
– | – | COC(=O)c1cncc(-c2ccc(NCC(C)(C)c3ccc(F)cc3)nn2)c1 [methyl 5-(6-{[2-(4-fluorophenyl)-2-methylpropyl]amino}pyridazin-3-yl)pyridine-3-carboxylate] | Mean AC1.4 [3]: B (B=1-10 uM)
B (B=1-10 uM) | – | CNc1ccc(-c2ccc(NC[C@]3(c4ncccc4F)C[C@H](F)C3)nn2)cc1C(=O)OC [methyl 5-[6-({[3-fluoro-1-(3-fluoro(2-pyridyl))cyclobutyl]methyl}ami-no)pyridazin-3-yl]-2-(methylamino)benzoate] | –
A (A=<1 uM) | – | COC(=O)c1cc2cc(-c3ccc(NC[C@]4(c5ncccc5F)C[C@H](F)C4)nn3)ccc2[nH]1 [methyl 5-[6-({[3-fluoro-1-(3-fluoro(2-pyridyl))cyclobutyl]methyl}ami-no)pyridazin-3-yl]indole-2-carboxylate] | –
– | B (B=1-10 uM) | CC(C)OC(=O)c1ccc(F)c(-c2ccc(NC[C@]3(c4ncccc4F)C[C@H](F)C3)nn2)c1 [methylethyl 4-fluoro-3-[6-({[3-fluoro-1-(3-fluoro(2-pyridyl))cyclobutyl]methyl}ami-no)pyridazin-3-yl]benzoate] | –
– | D (D=>20 uM) | O=C(CNC(=O)c1ccc(NCC2(c3ncccc3F)CCC2)nn1)OCc1ccccc1 [phenylmethyl 2-{[6-({[(3-fluoro-2-pyridyl)cyclobutyl]methyl}ami-no)pyridazin-3-yl]carbonylamino}acetate] | –
– | – | CC(C)(C)OC(=O)N1CCN(C(=O)c2ccc(NCC(C)(C)c3ccc(F)cc3)nn2)CC1 [tert-butyl 4-[(6-{[2-(4-fluorophenyl)-2-methylpropyl]amino}pyridazin-3-yl)carbonyl]piperazinecarboxylate] | Mean AC1.4 [3]: D (D=>20 uM)
– | – | CC(C)(C)OC(=O)N1CCN(C(=O)c2cccc(-c3ccc(NCC(C)(C)c4ccc(F)cc4)nn3)c2)CC1 [tert-butyl 4-{[3-(6-{[2-(4-fluorophenyl)-2-methylpropyl]amino}pyridazin-3-yl)phenyl]carbonyl}piperazine-carboxylate] | Mean AC1.4 [3]: B (B=1-10 uM)
– | B (B=1-10 uM) | CC(C)(C)OC(=O)N1CC(F)(F)CC1C(=O)NCc1cnc(-c2ccc(NCC3(c4ncccc4F)CCC3)nn2)s1 [tert-butyl (2S)-4,4-difluoro-2-[N-({2-[6-({[(3-fluoro(2-pyridyl))cyclobutyl]methyl}ami-no)pyridazin-3-yl](1,3-thiazol-5-yl)}methyl)carbamoyl]pyrrolidine-carboxylate] | –
– | A (A=<1 uM) | O=C(NCCO)c1cnc(-c2ccc(NCC3(c4ncccc4F)CCC3)nn2)s1 [{2-[6-({[(3-fluoro(2-pyridyl))cyclobutyl]methyl}ami-no)pyridazin-3-yl](1,3-thiazol-5-yl)}-N-(2-hydroxyethyl)carboxamide] | –
– | B (B=1-10 uM) | O=C(NC1CCNC1=O)c1cnc(-c2ccc(NCC3(c4ncccc4F)CCC3)nn2)s1 (stereo not shown) [{2-[6-({[(3-fluoro(2-pyridyl))cyclobutyl]methyl}ami-no)pyridazin-3-yl](1,3-thiazol-5-yl)}-N-(2-oxopyrrolidin-3-yl)carboxamide] | –
– | B (B=1-10 uM) | CC(C)NC(=O)c1cnc(-c2ccc(NCC3(c4ncccc4F)CCC3)nn2)s1 [{2-[6-({[(3-fluoro(2-pyridyl))cyclobutyl]methyl}ami-no)pyridazin-3-yl](1,3-thiazol-5-yl)}-N-(methylethyl)carboxamide] | –
